Experimental data reported in US10189803B2, “Synthesis of therapeutic and diagnostic drugs centered on regioselective and stereoselective ring opening of aziridinium ions” (ILLINOIS INSTITUTE OF TECHNOLOGY, priority 2008, dated 2019).

Legend:
[1] = Complexation kinetics with Bi(III), Arsenazo III (AAIII) spectroscopic competing reaction; format: physicochemical; conditions: pH 4.0 (0.15M NH4OAc), 25° C., 1 hour
Experimental: The novel ligand DEPA was further evaluated for the complexation kinetics with other metals. The complexation kinetics of the ligand DEPA with Bi(III) was determined using a well-known spectroscopic competing reaction with AAIII according to a modification of the reported procedure (Kodama, M.; Koike, T.; Mahatma, A. B.; Kimura, E. Inorg. Chem. 1991, 30, 1270). AAIII is known to form a weak complex with many different metals, which produce a UV absorbance maximum between ˜652 nm. However, uncomplexed AAIII absorb little at this wavelength. When introduced to a solution containing the AAIII-metal complex, a chelate can compete with AAIII for the metal. The idea is that if the chelate is more capable of binding the metal than AAIII, the metal will dissociate from the AAIII complex and form a complex with the chelate leading to the decrease in the absorbance at the wavelength. The absorbance (A652) for AAIII-Bi(III) complex was measured in the absence and in the presence of the ligands over 1 hour at rt. The complexation kinetics of Bi(III) was determined at pH 4.0 as hydrolysis occurs at a higher pH. The complexation result of the new ligands studied herein was compared to that of DOTA.
General procedure for complexation kinetics using AAIII. The kinetics experiments were performed as previously described. […]

[2] = T1 relaxivity of Gd(III) complexes (Bruker mq60 NMR analyzer); format: physicochemical; conditions: aqueous Gd(III) complexes, ~pH 7, 60 MHz
Experimental: Gd(NE3TA) and Gd(NE3TA-Bn) were synthesized by reacting GdCl3 with NE3TA and NE3TA-Bn, respectively. NE3TA or NE3TA-Bn were mixed with GdCl3 in a molar ratio of 1 to 0.9, and the resulting mixture at pH 7 was heated to 90° C. and stirred until no free Gd(III) ions were detected using an ArsenazoIII (AAIII) assay. Relaxivity of the aqueous […] complexes (pH 7) was measured on a Bruker MQ60 NMR analyzer, and the concentration of the Gd(III) complexes was measured by ICP-MS. […] NE3TA was successfully conjugated with the most common bile acid, cholic acid (FIG. 41).
(§1) Relaxivity Measurements. Relaxivity measurements were acquired by taking the slope of a plot of 1/T1 (s^−1) versus concentration (mM). The longitudinal water proton relaxation times (T1) were determined using a Bruker mq60 NMR (Bruker Canada, Milton, ON, Canada) analyzer operating at 59.97 MHz and 37° C. The agent was added to Millipore water and serially diluted by 0.5 to give a series of 5 concentrations (500 μL total volume) for each relaxivity trial. The T1 was determined using an inversion recovery pulse sequence with 10 different pulse separations per sample, 4 repetitions per echo time, phase cycling, and a recycle delay that is ≥5 times the T1 of each given sample. All curves were fit using a monoexponential curve fitting formula.
Relaxivity of the aqueous Gd(III) complexes (˜pH 7) were measured on a Bruker MQ60 NMR analyzer, and the concentration of the Gd(III) complexes were measured by ICP-MS. […] As mentioned above, the on and off binding to Gd(III) of one of the pendant coordinates would have resulted enhanced relaxivity of Gd(C-NETA) compared to Gd(C-DOTA). Among the evaluated Gd(III) complexes, Gd(C-NE3TA) gives the highest T1 relaxivity at 60 MHz, probably due to increase in q. The relaxation rates for the Gd(III) chelates are dominated by the inner-sphere dipolar coupling between the coordinated water molecule and the paramagnetic Gd(III). The measured relaxivities arise from the exchange between the coordinated water molecule and the surrounding water molecules in solution. […] No indication of Gd(III) dissociation is evident from the relaxivity data, which is in agreement with the in vitro serum stability and in vivo biodistribution studies.
as §1, with “The T1 relaxivity was determined” for “The T1 was determined”

[3] = Complexation kinetics with Lu(III), AAIII assay; format: physicochemical
Experimental: In summary, the novel decadentate ligand DEPA having both macrocyclic and acyclic metal binding moieties was efficiently prepared.
General procedure for complexation kinetics using AAIII. The kinetics experiments were performed as previously described. Ultrapure ammonium acetate (Aldrich, #431311) and hydrochloric acid solution (J. T. Baker, #JT6900-5) were purchased and used as received. All buffer solutions were prepared using deionized water (Milli-Q®, 18 MΩ). Metal-free stock solutions of all NH4OAc buffers (0.15 M, pH 4 or pH 4.5) were prepared using Chelex-100 resin (100-200 mesh, Bio-Rad Lab, Hercules, Calif.). Chelex resin (5 g) was added into the butter solution (100 mL) and the mixture was shaken for 1 h in a shaker (Eberbach), stored in the refrigerator overnight, and filtered through a Corning filter system (430513, pore size […]). A 15 μM AAIII solution in 0.15 M NH4OAc (pH 4 or pH 4.5) were prepared by adding AAIII (5.82 mg) to the NH4OAc buffer (500 mL). A solution of Bi(III)-AAIII (7.5 μM) was freshly prepared by mixing AAIII solution (15 μM, 50 mL) in 0.15 M NH4OAc (pH 4) with Bi(III) atomic absorption standard solution (79 μL, 995 μg/mL). A solution of Lu(III)-AAIII (1.8 μM) was freshly prepared by mixing AAIII solution ([…], 50 mL) in 0.15 M NH4OAc buffer (pH 4.5) with Lu(III) atomic absorption standard solution (15.4 μL, 1014 μg/ml). […]

Hela cells [4] = test: Antiproliferative activity, MTS assay, HeLa cells; format: cell-based, Human; conditions: for IC50: 72 h incubation, MTS; for cytotoxicity in HeLa cells over a series of concentrations (in words): FIG. 18
Experimental: Cell culture Human cervix HeLa cell line was obtained from ATCC (Rockville, Md.) and cultured in minimum essential medium (MEM) with L-glutamine (2 mM), Earle's BSS and sodium bicarbonate (1.5 g/L), supplemented with 10% fetal bovine serum (FBS), non-essential amino acids (0.1 mM), sodium pyruvate (1 mM) and antibiotic/antimycotic solution in a humidified atmosphere with 5% CO2 at 37° C. […] Lung fibroblast MRC-5 cell line was obtained from ATCC (Rockville, Md.) and cultured in ATCC formulated EMEM, supplemented with 10% fetal bovine serum (FBS) in a humidified atmosphere with 5% CO2 at 37° C.
(§2) Antiproliferative Activity. Cells were seeded onto 96-well plate at density of 2,000 cells for Hela cells or 5,000 cells for HT29 cells or 5,000 cells for MRC-5 per well in 0.1 mL complete medium and allowed to attach for 24 h. Varying concentrations of the test compounds in the final volume of 0.1 mL complete medium were then added in at least five series dilutions and incubated for 72 h. To measure cell proliferation, the Cell Titer 96 aqueous nonreactive cell proliferation assay (Promega Life Sciences, Madison, Wis.) was used according to the manufacturer's instructions. Briefly, MTS (2 mg/mL) and PMS (0.92 mg/ml) were mixed in a ratio of 20:1. An aliquot (20 μL) of the MTS/PMS mixture was added into each well, and the plate was incubated for 3 h at 37° C. Optical absorbance at 490 nm was then recorded with an enzyme-linked immunosorbent assay (ELISA) microtiter plate reader (Biotek). Each experiment was done at least in triplicate. Antiproliferative activity of the test compounds was expressed as the fraction of optical densities of treated the cells relative to the untreated solvent controls.^31 The data were plotted in GraphPad Prizm 3.0. Nonlinear regression analysis was used to determine IC50 values.
Cell culture. Human cervix HeLa cell line was obtained from ATCC (Rockville, Md.) and cultured in minimum essential medium (MEM) with L-glutamine (2 mM), Earle's BSS and sodium bicarbonate (1.5 g/L), supplemented with 10% fetal bovine serum (FBS), non-essential amino acids (0.1 mM), sodium pyruvate (1 mM) and antibiotic/antimycotic solution in a humidified atmosphere with 5% CO2 at 37° C.
as §2, with “activity.” for “Activity.”, “cells” for “cells or 5,000 cells for MRC-5”, “controls.” for “controls.^31”

HT29 cells = test: Antiproliferative activity, MTS assay, HT29 cells; format: cell-based, Human; conditions: 72 h incubation
Procedure, shortened: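 HeLa cells (2,000/well) and HT29 cells (5,000/well) were allowed to attach for 24 h, then exposed to at least five compound dilutions for 72 h. Viability was read by MTS/PMS reduction (3 h, 37° C, A490). IC50 was obtained by nonlinear regression of OD as a fraction of solvent control, at least in triplicate.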

MRC-5 cells = test: Antiproliferative activity in non-cancer lung fibroblast MRC-5 cells; format: cell-based, human; conditions: FIG. 20
Experimental: The cytotoxicity of the chelators in the cancer cells was compared to their cytotoxicities in non-cancer cells using human lung fibroblast cell (MRC-5).
Cell culture Human cervix HeLa cell line was obtained from ATCC (Rockville, Md.) and cultured in minimum essential medium (MEM) with L-glutamine (2 mM), Earle's BSS and sodium bicarbonate (1.5 g/L), supplemented with 10% fetal bovine serum (FBS), non-essential amino acids (0.1 mM), sodium pyruvate (1 mM) and antibiotic/antimycotic solution in a humidified atmosphere with 5% CO2 at 37° C. Human colon cancer cell line HT29 was maintained in a humidified atmosphere with 5% CO2 at 37° C. in RPMI-1640 medium, containing 10% FBS with L-glutamine and antibiotic/antimycotic. Lung fibroblast MRC-5 cell line was obtained from ATCC (Rockville, Md.) and cultured in ATCC formulated EMEM, supplemented with 10% fetal bovine serum (FBS) in a humidified atmosphere with 5% CO2 at 37° C.
Antiproliferative Activity. […] Optical absorbance at 490 nm was then recorded with an enzyme-linked immunosorbent assay (ELISA) microtiter plate reader (Biotek). […] Antiproliferative activity of the test compounds was expressed as the fraction of optical densities of treated the cells relative to the untreated solvent controls.^31 The data were plotted in GraphPad Prizm 3.0. […]

Hela cells [5] = test: Iron saturation experiment, Hela cell growth (MTS); format: cell-based, Human; conditions: for effect on Hela cells saturated with Fe(III)-citrate (in words): chelator 50 μM, Fe(III)-citrate 50 μM
Experimental: Cytotoxicity of the new chelators was measured in the HeLa and HT29 cancer cells and compared to that of the clinically used iron chelators DFO and DTPA. […] The preliminary cell culture experiments were performed to see ifNETA is an effective cytotoxic agent. […] In order to investigate the effect of the chelators on the cellular growth, the Hela cancer cells saturated with Fe(III)-citrate (50 μM) were incubated with each of the chelators (50 μM).
Iron Saturation Experiment Hela Cells were inoculated onto 96-well plates at density of 2,000 per well in 0.1 mL complete medium and incubated for 24 h. […] Control samples containing no ferric citriate were also tested. […] After the incubation, cells proliferation rates were evaluated by MTS assay.

Row | Compound | complexation with Bi(III) (absorbance at 652 nm vs time, in words) [1] | T1 relaxivity of Gd(III) complexes of bifunctional ligands [2] | complexation with Lu(III) (in words) [3] | IC50 (Hela cells [4]) | cytotoxicity in HeLa cells over a series of concentrations (in words) (Hela cells [4]) | IC50 (HT29 cells) | viability of normal MRC-5 cells compared to cancer cells (in words) (MRC-5 cells) | effect on Hela cells saturated with Fe(III)-citrate (in words) (Hela cells [5]) | HeLa cell survival (in words) (Hela cells [5]; free ligand 50 μM, no ferric citrate)
1 | O=C(O)CN1CCN(CC(=O)O)CCN(CC(=O)O)CCN(CC(=O)O)CC1 [DOTA, reference compound] | sluggish complexation | 3.96 mM⁻¹ s⁻¹ | – | – | – | – | – | – | –
2 | O=C(O)CN1CCN(CCN(CC(=O)O)CC(=O)O)CCN(CC(=O)O)CCN(CC(=O)O)CC1 [DEPA, {7-[2-(Bis-carboxymethyl-amino)-ethyl]-4,10-bis-carboxymethyl-1,4,7,10-tetraazacyclo-dodec-1-yl}-acetic acid] | quite prompt and substantial binding | – | slow in binding | – | – | – | – | – | –
3 | CC(=O)N(O)CCCCCNC(=O)CCC(=O)N(O)CCCCCNC(=O)CCC(=O)N(O)CCCCCN [DFO, desferoxamine, reference compound] | – | – | – | > 50 µM | not concentration-dependent | 36.1 ± 1.4 µM | little change in cell viability | modest increase in cell viability | –
4 | O=C(O)CN(CCN(CC(=O)O)CC(=O)O)CCN(CC(=O)O)CC(=O)O [DTPA, diethylenepentaacetic acid, reference compound] | – | – | – | 264 ± 36.2 µM | almost no cytotoxicity | 39.1 ± 4 µM | much enhanced viability of normal cells | almost no anti-proliferative activity | almost all HeLa cells incubated with DTPA (50 μM) survived
